Data published in US20090084024A1, “TRAP OR DISPENSER” (EXOSECT LIMITED, priority 2006, published 2009).

Key:
[1] = Pheromone content of carnauba wax cubes after manufacture and 1 month storage (Soxhlet extraction, Gas Chromatography); format: physicochemical; settings: 12 mm carnauba wax cubes with 5 mg codlemone
Procedure: Carnauba wax was melted in a pan on a hot plate at 105° C. and was poured into […] mould blocks. Theses were allowed to cool and were weighed, giving an average of 1.4 g per block. From this, it was calculated that 50 mg of codlemone should be added to every 14 g of molten carnauba wax to make ten […] cubes each containing 5 mg. These cubes were made using technical grade 99% pure Codlemone (E,E)-8,10-Dodecadien-1-ol (E8E10-120H) sourced from Bedoukian Research Inc., Danbury, Conn., US and the cubes were then cooled and stored in heat sealed aluminum sachets in a freezer for 1 month. They were then removed from the freezer and the pheromone was extracted from each cube by Soxhlet extraction with ethanol and analyzed by Gas Chromatography.

[2] = Release from two phase 100% carnauba wax lures in Eppendorf tubes (entrainment system, GC/GC-MS, wind tunnel ageing); format: physicochemical; settings: two-layer carnauba wax; wind tunnel 5 km/h, 27° C.; retested over 20 days; FIG. 1
Procedure: In this experiment Eppendorf tubes were filled with two layers of molten carnauba wax containing different concentrations of Codlemone (E,E)-8,10-Dodecadien-1-ol (E8E10-120H). […] In the lower part of the tube, 0.75 cm^3 of molten carnauba wax containing 5 mg of codlemone and the above compounds was poured in and allowed to solidify. The next step was to add a 0.25 cm^3 cap of molten carnauba wax with 1 mg of codlemone and the above compounds to the top of the solid wax. The concept behind this experiment was that the upper layer would reduce the initial surge of pheromone that is an unwanted characteristic of all known lures when opened for the first time. The hope was that by putting a low dose in the upper layer, the initial surge would be smaller and as the pheromone in this low dose layer disappeared it would be replaced by a steady flow of pheromone permeating through it from the higher concentration layer beneath.
The lures were formulated and immediately frozen and stored in impermeable aluminum sachets until they were placed into an entrainment system comprising a sealed glass sample chamber and an adsorbent tube filled with Porapak Q, obtained from Supelco, Bellefonte, Pa. Semiochemical(s) released over 2-hour intervals were transferred to the adsorbent by use of a vacuum pump, and eluted for GC/GC-MS analysis using dichloromethane. […]

Row | Compound | lost during manufacturing, storage for 1 month and analysis [1] | initial loading remaining in the cubes ([1]; average, stored in heat sealed aluminum sachets in a freezer for 1 month) | release rate of compounds from the Eppendorf wax lures [2]
1 | C/C=C/C=C/CCCCCCCO [Codlemone, (E,E)-8,10-Dodecadien-1-ol] | 2.5% | 97.5% | –
2 | CCCCCCCCCCCCC [Tridecane (13:HC), Tridecane] | – | – | releases much more quickly than Decyl Acetate (10:Ac)
